Experimental data as given in patent US4352788A, “Derivatives of 2,4,6-triiodo-isophthalic acid, processes for their synthesis and X-ray contrasting materials containing these” (Bracco Industria Chimica S.p.A., priority 1979, dated 1982).
In brackets after ≈: the same amount, converted by molar mass. Entries after “also recorded” stand apart in the source; their conditions may differ. Like-named read-outs stand apart in the source and are kept apart here.

Legend:
[1] = Water solubility; format: physicochemical; conditions: for solubility: water
[2] = cited from earlier work; for water solubility (in words): prior art
[3] = Viscosity of aqueous solutions; format: physicochemical; conditions: for Viscosity at 37° C.: injection solution (Example 14)
[4] = cited from earlier work
[5] = Density of injection solution; format: physicochemical; conditions: injection solution (Example 14), in g/mL (unit assumed)
[6] = Osmotic pressure of solutions; format: physicochemical; conditions: for Osmotic Pressure: 37° C.
[7] = Stability (hydrolysis, aqueous solution); format: physicochemical
[8] = Osmolality of solutions; format: physicochemical; conditions: 37° C.
[9] = Solubility in organic solvents; format: physicochemical
[10] = prior art; cited from earlier work
[11] = compared with METRIZAMIDE; cited from earlier work
[12] = at 20° C., Table 1, read-out: Solubility in Water
[13] = aqueous solution containing 300 mg I/ml, 20° C.
[14] = aqueous solution containing 300 mg I/ml, 37° C.
[15] = aqueous solution containing 400 mg I/ml, 20° C.
[16] = aqueous solution containing 400 mg I/ml, 37° C.
[17] = at 25° C., read-out: Water solubility

## CC(O)C(=O)N(C)c1c(I)c(C(=O)NC(CO)CO)c(I)c(C(=O)NC(CO)CO)c1I (racemic) [d,L-5-(N-methyl-α-hydroxypropionyl-amino)-2,4,6-triiodo-isophthalic-acid-bis-(1,3-dihydroxyisopropylamide]
[1]
  supersaturation of aqueous solutions: supersaturated
  water solubility (in words): dissolves in water very readily

## CC(O)C(=O)Nc1c(I)c(C(=O)NC(CO)CO)c(I)c(C(=O)NC(CO)CO)c1I (racemic) [d,L-5-α-hydroxypropionylamino-2,4,6-triiodo-isophthalic-acid-bis-(1,3-dihydroxyisopropylamide)]
[1]
  water solubility (in words): only limited solubility in water

## CC(=O)Nc1c(I)c(C(=O)NCC(O)CO)c(I)c(C(=O)NCC(O)CO)c1I (stereo not drawn) [5-acetylamino-2,4,6-triiodoisophthalic-acid-bis-(2,3-dihydroxypropylamide)]
[2]; at 20°-40° C.
  water solubility: 1 % (w/v)
[2]
  water solubility (in words): slightly water-soluble

## CC(=O)Nc1c(I)c(C(=O)N[C@H]2C(O)O[C@H](CO)[C@@H](O)[C@@H]2O)c(I)c(N(C)C(C)=O)c1I (stereo partly drawn) [C, 3-acetylamino-4-N-methyl-acetylamino-2,4,6-triiodobenzoylglucosamine, reference compound]
[1]; [12]
  solubility: ~800 mg/mL (≈ 1010 mM)
[3]; [13]
  Viscosity: 11.7 cP
[3]; [14]
  Viscosity: 5.98 cP
[3]; [15]
  Viscosity: 77.8 cP
[3]; [16]
  Viscosity: 26.9 cP
[4]; prior art
  stability in aqueous solutions (in words): relatively little stability in aqueous solutions
[2]
  water solubility (in words): readily water-soluble

## CN(C(=O)CO)c1c(I)c(C(=O)NCC(O)CO)c(I)c(C(=O)NCC(O)CO)c1I (stereo not drawn) [Compound A, 5-(N-methyl-hydroxyacetylamino)-2,4,6-triiodo-isophthalic-acid-bis-(2,3-dihydroxypropylamide)]
[5]; 200 mg iodine/ml
  Density at 37° C.: 1.207
[5]; 300 mg iodine/ml
  Density at 37° C.: 1.316
[5]; 420 mg iodine/ml
  Density at 37° C.: 1.453
[1]
  water solubility (in words): comparatively particularly high water-solubility; also recorded: higher water solubility
[1]; listed as Example 9
  water solubility (in words): very readily soluble
[1]; listed as Example 11
  water solubility (in words): very soluble
[1]; [12]
  solubility: > 1000 mg/mL
[1]; read-out: solubility in water
  solubility: 3000 mg/mL (≈ 3860 mM)
[6]; 250 mg I/ml
  Osmotic Pressure: 11.52 atm
[6]; 300 mg I/ml
  Osmotic Pressure: 13.64 atm
[6]; 350 mg I/ml
  Osmotic Pressure: 15.98 atm
[6]; compared with IOPAMIDOL
  osmotic pressure (in words): less than that of IOPAMIDOL
[7]
  stability (in words): high stability
[8]; 250 mg I/ml
  Osmolality: 452 mOsm/kg
[8]; 300 mg I/ml
  Osmolality: 536 mOsm/kg
[8]; 350 mg I/ml
  Osmolality: 628 mOsm/kg
[3]
  viscosity of aqueous solutions (in words): low viscosity; also recorded: appreciably lower viscosity
[3]; [13]
  Viscosity: 7.55 cP
[3]; [14]
  Viscosity: 4.19 cP
[3]; [15]
  Viscosity: 22.0 cP
[3]; [16]
  Viscosity: 9.87 cP
[3]; 200 mg iodine/ml
  Viscosity at 37° C.: 1.87 cP
[3]; 300 mg iodine/ml
  Viscosity at 37° C.: 4.19 cP
[3]; 420 mg iodine/ml
  Viscosity at 37° C.: 20.03 cP
[9]
  Solubility in ethanol (in words): limited
[9]; ethanol at 25° C.
  Solubility in ethanol: 35 parts by volume
[9]; ethanol at the boiling point
  Solubility in ethanol: 20 parts by volume
[9]; methanol, organic solvent or mixture
  solubility: 1000 mg/mL (≈ 1290 mM)
[9]; methanol, listed as Example 9
  solubility in methanol (in words): very readily soluble
[9]; methanol, listed as Example 11
  solubility in methanol (in words): very soluble

## C[C@H](O)C(=O)Nc1c(I)c(C(=O)NC(CO)CO)c(I)c(C(=O)NC(CO)CO)c1I [Compound B, L-5-α-hydroxypropionylamino-2,4,6-triiodo-isophthalic-acid-bis-(1,3-dihydroxyisopropylamide), reference compound]
[1]; at 20° C., text
  water solubility: 89.7 % w/v
[1]; at 20° C., listed as IOPAMIDOL
  water solubility: 440 mg of iodine per ml
[6]; 250 mg I/ml
  Osmotic Pressure: 13.09 atm
[6]; 300 mg I/ml
  Osmotic Pressure: 15.76 atm
[6]; 350 mg I/ml
  Osmotic Pressure: 18.77 atm
[10]
  toxicity (in words): very low
[8]; 250 mg I/ml
  Osmolality: 514 mOsm/kg
[8]; 300 mg I/ml
  Osmolality: 619 mOsm/kg
[8]; 350 mg I/ml
  Osmolality: 737 mOsm/kg
[3]; [13]
  Viscosity: 8.95 cP
[3]; [14]
  Viscosity: 4.70 cP
[3]; [15]
  Viscosity: 40.6 cP
[3]; [16]
  Viscosity: 16.1 cP
[11]
  viscosity of concentrated aqueous solutions (in words): lower viscosity
[4]; compared with METRIZAMIDE
  stability (in words): higher stability

## C[C@H](O)C(=O)N(C)c1c(I)c(C(=O)NC(CO)CO)c(I)c(C(=O)NC(CO)CO)c1I [Example 1, L-5-(N-methyl-α-hydroxypropionyl-amino)-2,4,6-triiodoisophthalic-acid-bis-(1,3-dihydroxyisopropylamide)]
[1]; [17]
  solubility: ≥ 1000 mg/mL

## CCCN(C(=O)[C@H](C)O)c1c(I)c(C(=O)NC(CO)CO)c(I)c(C(=O)NC(CO)CO)c1I [Example 3]
[1]; [17]
  solubility: ≥ 1000 mg/mL

## CCCCN(C(=O)[C@H](C)O)c1c(I)c(C(=O)NC(CO)CO)c(I)c(C(=O)NC(CO)CO)c1I [Example 4, L-5-(N-butyl-α-hydroxypropionyl-amino)-2,4,6-triiodo-isophthalic-acid-bis-(1,3-dihydroxyisopropylamide)]
[1]; temperature not stated, read-out: Water solubility
  solubility: ≥ 1000 mg/mL

## CN(C(=O)CO)c1c(I)c(C(=O)NCC2COC(C)(C)O2)c(I)c(C(=O)NCC2COC(C)(C)O2)c1I (stereo not drawn) [Example 13(A), 5-(N-methyl-hydroxyacetyl-amino)-2,4,6-triiodo-isophthalic-acid-bis-(2,3-isopropylidenedihydroxypropylamide)]
[1]
  water solubility (in words): only slightly soluble in water
[9]; chloroform
  solubility in chloroform (in words): very soluble
[9]
  Solubility in ethanol (in words): very soluble
[9]; methanol
  solubility in methanol (in words): very soluble

## C[C@H](O)C(=O)Nc1c(I)c(C(=O)NC(CO)CO)c(I)c(C(=O)NC(CO)CO)c1I [IOPAMIDOL hydrate, reference compound]
[1]; at 20° C.
  water solubility: 307 mg of iodine per ml
[1]; at 20° C., read-out: water solubility
  solubility: 627 mg/mL
